# Reference: PubChem BioAssay (NCI)
#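 These data come from cells grown in 96-well plates and exposed to compound for 48 hours at five concentrations. The concentration for 50% growth inhibition is given as GI50. TGI: total growth inhibition.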
# Tests used:
# Test in all cases: growth of human tumour cells (NCI), 48 h
# KM12 colon = system: KM12 colon
# NCI-H23 lung = system: NCI-H23 lung
# LOX IMVI melanoma = system: LOX IMVI melanoma
# K-562 leukemia = system: K-562 leukemia
# SK-OV-3 ovarian = system: SK-OV-3 ovarian
# HCC-2998 colon = system: HCC-2998 colon
# HOP-92 NSCLC = system: HOP-92 NSCLC
# DU-145 prostate = system: DU-145 prostate
# NCI/ADR-RES ovarian = system: NCI/ADR-RES ovarian
# IGROV1 ovarian = system: IGROV1 ovarian
Compound,GI50 (KM12 colon),TGI (KM12 colon),GI50 (NCI-H23 lung),TGI (NCI-H23 lung),GI50 (LOX IMVI melanoma),TGI (LOX IMVI melanoma),GI50 (K-562 leukemia),TGI (K-562 leukemia),GI50 (SK-OV-3 ovarian),TGI (SK-OV-3 ovarian),GI50 (HCC-2998 colon),TGI (HCC-2998 colon),GI50 (HOP-92 NSCLC),TGI (HOP-92 NSCLC),GI50 (DU-145 prostate),TGI (DU-145 prostate),GI50 (NCI/ADR-RES ovarian),TGI (NCI/ADR-RES ovarian),GI50 (IGROV1 ovarian),TGI (IGROV1 ovarian)
C=C1C(=O)O[C@H]2[C@H]1CC/C(COC(=O)CCCCCCCCC(=O)OC/C1=C/CC[C@@]3(C)O[C@H]3[C@H]3OC(=O)C(=C)[C@@H]3CC1)=C\CC[C@@]1(C)O[C@@H]21,2.13 µM,4.68 µM,2 µM,4.25 µM,1.62 µM,3.08 µM,2.6 µM,9.7 µM,12 µM,25.2 µM,1.9 µM,3.58 µM,1.94 µM,4.38 µM,2.03 µM,4.2 µM,3.14 µM,13.5 µM,1.97 µM,4.24 µM
NC(CNO)C(=O)O (stereo not drawn),–,> 100 µM,–,> 100 µM,–,> 100 µM,–,–,–,> 100 µM,–,–,–,> 100 µM,–,> 100 µM,–,> 100 µM,–,> 100 µM
c1cc(OCCN2CCCCCC2)ccc1CNc1ccc2nc(CCC3CCCCC3)[nH]c2c1,2.84 µM,9.07 µM,2.36 µM,6.62 µM,1.74 µM,3.2 µM,1.63 µM,4.61 µM,2.18 µM,4.84 µM,1.99 µM,3.98 µM,0.836 µM,3.09 µM,3.9 µM,14.6 µM,2.64 µM,8.66 µM,2.04 µM,7.31 µM
Cn1ncc2c(/N=C/c3cccs3)[nH]c(=S)nc21,28.8 µM,> 59.4 µM,33.7 µM,> 76.1 µM,36.4 µM,> 100 µM,21.2 µM,> 100 µM,80 µM,> 100 µM,32.9 µM,> 100 µM,61.2 µM,> 100 µM,25.6 µM,> 70.5 µM,> 100 µM,> 100 µM,> 61.2 µM,> 100 µM
